Source: PubChem BioAssay (NCI)
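Cells were grown in 96-well plates and exposed to each compound for 48 hours at five concentrations; endpoints were interpolated linearly between bracketing concentrations, or set to the highest concentration if not reached. GI50 is the concentration that inhibits growth by half. The concentration for full growth arrest is given as TGI.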

Tests used:
Experiment in all cases: NCI tumour cell line growth inhibition, 48 h
[1] = system: HOP-62 NSCLC
[2] = system: MDA-MB-231 breast
[3] = system: NCI-H522 lung
[4] = system: OVCAR-4 ovarian
[5] = system: OVCAR-8 ovarian
[6] = system: SF-295 CNS
[7] = system: SK-MEL-28 melanoma
[8] = system: SN12C renal
[9] = system: SNB-75 CNS
[10] = system: UACC-62 melanoma

SMILES | GI50 [1] | TGI [1] | GI50 [2] | TGI [2] | GI50 [3] | TGI [3] | GI50 [4] | TGI [4] | GI50 [5] | TGI [5] | GI50 [6] | TGI [6] | GI50 [7] | TGI [7] | GI50 [8] | TGI [8] | GI50 [9] | TGI [9] | GI50 [10] | TGI [10]
COc1ccc(-c2cc(-c3ccc(OC)cc3)nc(NCCCNc3ccnc4cc(Cl)ccc34)n2)cc1 | 1.56 µM | 3.06 µM | 1950 nM | 3.59 µM | 1920 nM | 3.81 µM | 1650 nM | 3.35 µM | 1.81 µM | 3.57 µM | 13.9 µM | 32 µM | 1730 nM | 3.21 µM | 1710 nM | 3.34 µM | 11.8 µM | 24.5 µM | 2.76 µM | 7.26 µM
CCCCC(OC(=O)c1ccc(N)cc1)C(=O)Nc1nc(CC(=O)OCC)cs1 (stereo not given) | 56.5 µM | > 100 µM | 28100 nM | > 100 µM | 33900 nM | > 100 µM | 29800 nM | > 100 µM | 40.4 µM | > 100 µM | 32.3 µM | > 100 µM | 42200 nM | > 100 µM | 41600 nM | > 100 µM | 35.2 µM | > 100 µM | 51.6 µM | > 100 µM
CCOC(=O)c1c2c(n3ccc(NC(=O)CCN4CCCCC4)cc13)C(=O)c1ncccc1C2=O | 0.0229 µM | 1.83 µM | 1790 nM | 3.77 µM | 15.8 nM | 1.72 µM | 1420 nM | 3.56 µM | 1.28 µM | 3.71 µM | 0.121 µM | 1.92 µM | 668 nM | 2.38 µM | 111 nM | 2.33 µM | 0.506 µM | 5.98 µM | 0.281 µM | 2.65 µM
FC(F)(F)c1nc(SCc2ccc(Cl)cc2)n[nH]1 | – | > 100 µM | – | > 100 µM | – | > 100 µM | – | > 100 µM | – | > 100 µM | – | > 100 µM | – | > 100 µM | – | > 100 µM | – | > 100 µM | – | > 100 µM
CC[C@]12C=CCN3CC[C@@]4(c5ccc(OC)cc5N(C)[C@H]4[C@@](O)(C(=O)OC)[C@@H]1OC(=O)CCC(=O)O[C@H]1CC[C@H]4[C@@H]5CC[C@H]6CC(=O)CC[C@]6(C)[C@H]5CC[C@]14C)[C@@H]32 | 4.83 µM | > 100 µM | 3030 nM | 11.3 µM | 2850 nM | 27 µM | 2580 nM | > 100 µM | 5.84 µM | > 100 µM | 2.02 µM | > 100 µM | 3270 nM | > 100 µM | 2880 nM | 36.2 µM | 3.3 µM | > 100 µM | 3.25 µM | > 100 µM
COC(=O)C1=C(C(=O)ON)[C@@H]2C=C[C@@]1([C@@H](Cc1ccccc1)Nc1ccccc1)O2 | 16.9 µM | 32.4 µM | 1790 nM | 3.78 µM | 1480 nM | 3.41 µM | 1620 nM | 3.04 µM | 14.4 µM | 27.9 µM | 15.1 µM | 28.8 µM | 1930 nM | 3.54 µM | 1870 nM | 3.69 µM | 12.4 µM | 24.9 µM | 6.37 µM | 19.3 µM
O=c1oc2ccc(Cl)cc2c(=O)n1-c1ccc(F)cc1F | 1.49 µM | 4.84 µM | 2060 nM | 8.2 µM | 1400 nM | 10.3 µM | 1110 nM | > 100 µM | 2.66 µM | > 100 µM | 1.76 µM | 3.55 µM | 1520 nM | 10.5 µM | 1670 nM | 8.78 µM | 1.32 µM | 4.2 µM | 0.608 µM | 3.84 µM
